Measurements published in patent publication US20220280525A1, “RAC INHIBITION AS A NOVEL THERAPEUTIC STRATEGY FOR EGFR/HER2 TARGETED THERAPY RESISTANT BREAST CANCER” (UNIVERSITY OF PUERTO RICO, priority 2021, published 2022).
Read-outs that look alike come from different tables or passages of the source.

Assays:
[1] = system: SKBR3 lapatinib resistant cells; assay: Caspase-Glo 3/7 apoptosis assay, lapatinib resistant SKBR3 cells; type: cell-based, human
Description: (§1) FIG. 3A-3B. Apoptosis in therapy sensitive and resistant variants Apoptosis in therapy sensitive and resistant SKBR3 cell variants was detected by a Caspase-Glo 3/7 Assay. (A) Fold change in Caspase 3/7 activity in the therapy sensitive SKBR3 cell line following Gef or Lap treatment for 48 h compared to the vehicle controls. (B) Fold change in caspase 3/7 activity in the therapy resistant cell lines following treatment compared to non-treated cells. N=3±SEM, *=p≤0.05, ***=p≤0.005
(§2) FIG. 6A-6F. […] N=3±SEM *=p≤0.05, **=p≤0.01****=p≤0.001.
(§3) Apoptosis was analyzed by the Caspase-Glo 3/7 activity assay (Promega) as described by the manufacturer. Briefly, cells were seeded in a 96 well plate and treated for 48h. Luminogenic caspase- 3/7 substrate containing a DEVD sequence was added and incubated for 1h. The luminescence was measured by a plate-reading luminometer.

[2] = system: MDA-MB-435 HER2+ cells resistant to lapatinib and trastuzumab; assay: MTT cell viability assay, therapy resistant MDA-MB-435 variant; type: cell-based; conditions: 48 h
[3] = system: HER2+ and EGFR+breast cancer cells; assay: Mammosphere forming efficiency with Rac inhibitors; type: cell-based
Rac [4] = assay: Effective concentration of Rac inhibitors; conditions: relative to NSC23766
[5] = system: SKBR3 lapatinib resistant (Lap.R) cells; assay: MTT cell viability assay, lapatinib resistant SKBR3 variant; conditions: for decrease in cell viability: Lap.R SKBR3
[6] = system: Trastuzumab resistant SKBR3 variant; assay: Caspase 3/7 apoptosis assay, Trastuzumab resistant SKBR3 variant; type: cell-based, human
[7] = system: Trastuzumab resistant SKBR3 cells; assay: MTT cell viability assay, Trastuzumab resistant SKBR3 variant; type: cell-based; conditions: Homo sapiens; for cytotoxicity at 0.25 µM: SK-BR-3
[8] = system: gefitinib resistant SKBR3 variants; assay: Cell phenotype of gefitinib resistant SKBR3 variants after Rac inhibitor; type: cell-based, human
[9] = system: SKBR3 therapy sensitive cells; assay: MTT cell viability assay, therapy sensitive SKBR3 cells; type: cell-based, human; conditions: 5 and 10 μM, 24 h
Source text: as §2

[10] = system: SKBR3 gefitinib resistant (Gef.R) cells; type: cell-based, human
Rac [11] = conditions: Tiam1/Rac inhibitor, most studies; cited from earlier work
[12] = system: SKBR3 therapy resistant variants; assay: Mammosphere assay, therapy resistant SKBR3 variants; conditions: therapy resistant variants treated with gefitinib or lapatinib
[13] = system: SKBR3 therapy sensitive cells; assay: Caspase-Glo 3/7 apoptosis assay, therapy sensitive SKBR3 cells; type: cell-based, human; conditions: gefitinib, 48 h, vs vehicle
Description: as §1, §3

[14] = system: SKBR3 therapy sensitive cells; assay: Mammosphere assay, therapy sensitive SKBR3 cells; conditions: 0.5 μM gefitinib or 0.1 μM lapatinib
HER2 = HER2 (Homo sapiens, UniProt P04626)
[15] = MBQ-167 250 nM, Lapatinib resistant SKBR3

For CCn1c2ccccc2c2cc(-n3nncc3-c3ccccc3)ccc21 (racemic) [MBQ-167], the “increase in caspase 3/7 activity” value ([1]; MBQ-167 0.25 μM alone, Lap.R SKBR3) was > 2 fold, the caspase activity ([1]; MBQ-167 0.25 μM in combination with lapatinib 0.5 μM, Lap.R SKBR3) was “even higher significant increase in caspase activity” and the apoptosis induction [1, 15] was 55%. For the same molecule, the “decrease in cell viability” value ([2]; MBQ-167 alone) was ~40%, the cell viability ([2]; MBQ-167 in the presence of trastuzumab) was “inhibits MDA-MB-435 cell viability” and the “mammosphere forming efficiency (MFE)” value [3] was “significantly reduce the MFE”. For the same molecule, the “effective concentration lower than NSC23766” value (Rac [4]) was 100 ×, the “decrease in cell viability” value ([5]; 0.5 μM MBQ-167 alone) was ~40% and the “decrease in cell viability” value ([5]; 0.5 μM MBQ-167 in combination with 0.5 μM lapatinib) was ~40%. For the same molecule, the reduction of viability [5, 15] was 30%, the “apoptosis (Caspase 3/7)” value ([6]; MBQ-167 in the presence of Trastuzumab) was “only partially overcame this resistance to apoptosis” and the “apoptosis (Caspase 3/7)” value ([6]; single agent, MBQ-167 at 250-750 nM) was “induced apoptosis”. The IC50 ([7]; SK-BR-3, read-out: IC50 (cell viability)) was 100 nM, the cytotoxicity at 0.25 µM ([7]; 96 and 120h, 250 nM MBQ-167, read-out: reduction of viability) was 90 to 100% and the cytotoxicity at 0.25 µM ([7]; 72 h, saturated at 250 nM, read-out: decrease in viability) was 50%. For the same molecule, the cell phenotype [8] was “cell rounding, detachment from the substrate, and subsequent death”.

In the case of CCn1c2ccccc2c2cc(Nc3ccnc(NCCCN4CCOCC4)n3)ccc21 [EHop-016], the cell viability [9] is reported as “statistically significant decrease in cell viability”, the “mammosphere forming efficiency (MFE)” value [3] is reported as “significantly reduce the MFE” and the cell viability [10] is reported as “statistically significant decrease in cell viability”. The “effective concentration lower than NSC23766” value (Rac [4]) was 100 × and the cell viability ([5]; lapatinib resistant SKBR3, 5 and 10 μM, 24 h) was “statistically significant decrease in cell viability”.

In the case of CCN(CC)CCCC(C)Nc1nc(C)cc(Nc2ccc3nc(C)cc(N)c3c2)n1 (centres unmarked) [NSC23766], the active concentration (Rac [11]) is given as 50 to 100 µM.

With COc1cc2ncnc(Nc3ccc(F)c(Cl)c3)c2cc1OCCCN1CCOCC1 [gefitinib] the mammosphere formation [12] was “no significant effect on mammosphere formation”, the “apoptosis (caspase 3/7 activity)” value [13] was “did not respond to gefitinib by apoptosis” and the mammosphere formation [14] was “significant reduction in mammosphere formation”.

For CS(=O)(=O)CCNCc1ccc(-c2ccc3ncnc(Nc4ccc(OCc5cccc(F)c5)c(Cl)c4)c3c2)o1 [lapatinib], the “caspase 3/7 activity” value ([1]; lapatinib resistant variant in response to lapatinib) was “significant decrease in caspase 3/7 activity”, the “expression of total HER2” value (HER2; sensitive SKBR3 cells, 24 h, 0.5 μM gefitinib, 0.1 μM lapatinib) was “significantly elevated” and the pHER2 levels (HER2; variants resistant to gefitinib 0.1 μM and lapatinib 0.1 μM, each with its own drug) was “decreased pEGFR and pHER2 levels”. For the same molecule, the “sensitivity of cell viability” value ([2]; single agent) was “insensitive”, the mammosphere formation [12] was “no significant effect on mammosphere formation” and the cell viability ([5]; Lap.R cells, lapatinib alone) was “did not affect the viability”. For the same molecule, the mammosphere formation [14] was “significant reduction in mammosphere formation”.
